From patent publication US5063152A, “Synthetic peptidic substrate for determination of trypsin and α1” (Nitto Boseki Co., Ltd., priority 1985, dated 1991)
Where “and” joins values, the source holds several entries; their conditions need not be identical. Equal values may be shown once. Square brackets hold non-standard residues; d marks the D form. Peptide text beside a SMILES is read from it. * marks the point of attachment. pNA = O=[N+]([O-])c1ccc(N*)cc1; Cbz = O=C(OCc1ccccc1)*

What was measured:
Plasmin (PL) = target: T1, Plasmin (PL) (Homo sapiens, UniProt P00747); test: substrate specificity test, reaction with plasmin; format: biochemical; details: for measured optical density (absorbance), plasmin: initial substrate concentration 2 mmol/l, 37° C., 5 minutes; for relative reactivity in the case of plasmin: Table 1, PS-1188N = 100; for relative reactivity of substrate with plasmin: reactivity of PS-1188N taken as 100, initial substrate concentration 2 mmol
T1 construct: Plasmin Human; purchased Green Cross Corp
Method: (§1) The synthetic peptides obtained in Examples 1 and 2 were subjected to a substrate specificity test by reacting with various enzymes under the following conditions.
(§2) 1) substrate solution: 10 mmol/l (concentration)
(§3) 2) buffer solution: tris-HCl buffer
(§4) Concentrations of NaCl, and CaCl2 and pH (at 25° C.) were adjusted as shown in Table 2 depending on enzymes to be reacted: […]
(§5) 4) Reaction stopper solution in the case of pNA: 10% acetic acid
(§6) 5) Color producing reagent for CHA: sodium pentacyanoamine ferroate
(§7) The buffer solution in an amount of 0.3 ml and 0.1 ml of an enzyme solution were placed in a test tube made of hard glass treated with silicon or a test tube made of a plastic (polystyrene) and preheated for 5 minutes in a constant temperature bath maintained at 37° C. Then, 0.1 ml of a substrate solution was added to the test tube and incubated at 37° C. for just 5 minutes. Subsequently, 2.0 ml of the reaction stopper solution (in the case of pNA) or the color producing reagent (in the case of CHA) was added to the reaction solution to terminate the enzymatic reaction. After allowing to stand at 37° C. for 10 minutes, absorbance (optical density) at 405 nm (in the case of pNA) or at 700 nm (in the case of coupled CHA) was measured. The initial substrate concentration was 2 mmol/l.

Factor Xa (FXa) = target: T2, Factor Xa (FXa) (Bos taurus, UniProt P00743); test: substrate specificity test, reaction with factor Xa; format: biochemical, Bovine; details: for measured optical density (absorbance), factor Xa: initial substrate concentration 2 mmol/l, 37° C., 5 minutes; for relative reactivity in the case of factor Xa: Table 1, PS-1188N = 100; for relative reactivity of substrate with factor Xa: reactivity of PS-1188N taken as 100, initial substrate concentration 2 mmol
T2 construct: Factor Xa; purchased Sigma Chem. Co
Method: as §1, §2, §3, §4, §5, §6, §7

Urokinase (UK) = target: T3, Urokinase (UK) (Homo sapiens, UniProt P00749); test: substrate specificity test, reaction with urokinase; format: biochemical; details: initial substrate concentration 2 mmol/l, 37° C., 5 minutes
T3 construct: purchased Mochida Pharmaceutical Co., Ltd
Method: as §1, §2, §3, §4, §5, §6, §7

Trypsin (Try) = target: T4, Trypsin (Try) (Bos taurus, UniProt P00760); test: substrate specificity test, reaction with trypsin; format: biochemical, Bovine; details: for measured optical density (absorbance), trypsin: initial substrate concentration 2 mmol/l, 37° C., 5 minutes; for relative reactivity of substrate with trypsin: reactivity of PS-1188N taken as 100, initial substrate concentration 2 mmol
T4 construct: purchased Worthington
T4 sequence (P00760 24-246): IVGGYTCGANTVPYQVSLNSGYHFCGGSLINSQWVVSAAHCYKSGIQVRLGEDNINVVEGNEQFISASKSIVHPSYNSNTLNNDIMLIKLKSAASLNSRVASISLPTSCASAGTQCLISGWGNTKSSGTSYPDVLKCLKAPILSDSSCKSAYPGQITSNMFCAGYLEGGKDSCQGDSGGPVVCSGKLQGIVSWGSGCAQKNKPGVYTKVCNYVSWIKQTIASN
Method: as §1, §2, §3, §4, §5, §6, §7

Thrombin (TH) = target: T5, Thrombin (TH) (Bos taurus, UniProt P00735); test: substrate specificity test, reaction with thrombin; format: biochemical, Bovine; details: for measured optical density (absorbance), thrombin: initial substrate concentration 2 mmol/l, 37° C., 5 minutes; for relative reactivity in the case of thrombin: Table 1, PS-1188N = 100; for relative reactivity of substrate with thrombin: reactivity of PS-1188N taken as 100, initial substrate concentration 2 mmol
T5 construct: Thrombin; purchased Mochida Pharmaceutical Co., Ltd
Method: as §1, §2, §3, §4, §5, §6, §7

Kallikrein (KL) = target: T6, Kallikrein (KL) (Sus scrofa, UniProt P00752); test: substrate specificity test, reaction with kallikrein; format: biochemical, Porcine; details: for measured optical density (absorbance), kallikrein: initial substrate concentration 2 mmol/l, 37° C., 5 minutes; for relative reactivity in the case of kallikrein: Table 1, PS-1188N = 100; for relative reactivity of substrate with kallikrein: reactivity of PS-1188N taken as 100, initial substrate concentration 2 mmol
T6 construct: purchased Sigma Chem. Co
Method: as §1, §2, §3, §4, §5, §6, §7

T2 sequence (P00743 234-492 limits assumed): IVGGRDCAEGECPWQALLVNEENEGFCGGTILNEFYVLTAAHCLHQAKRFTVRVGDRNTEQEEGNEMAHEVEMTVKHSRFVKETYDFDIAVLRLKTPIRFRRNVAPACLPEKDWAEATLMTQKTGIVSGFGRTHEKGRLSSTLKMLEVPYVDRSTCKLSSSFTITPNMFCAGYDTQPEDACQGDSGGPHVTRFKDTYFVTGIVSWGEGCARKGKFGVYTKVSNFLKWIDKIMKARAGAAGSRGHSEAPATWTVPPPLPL
T2 sequence (P00743 41-180 partner limits assumed): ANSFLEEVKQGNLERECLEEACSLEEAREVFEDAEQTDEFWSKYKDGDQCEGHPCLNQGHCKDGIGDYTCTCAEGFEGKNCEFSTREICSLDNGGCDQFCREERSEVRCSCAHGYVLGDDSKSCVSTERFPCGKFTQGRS
T1 sequence (P00747 581-810 limits assumed): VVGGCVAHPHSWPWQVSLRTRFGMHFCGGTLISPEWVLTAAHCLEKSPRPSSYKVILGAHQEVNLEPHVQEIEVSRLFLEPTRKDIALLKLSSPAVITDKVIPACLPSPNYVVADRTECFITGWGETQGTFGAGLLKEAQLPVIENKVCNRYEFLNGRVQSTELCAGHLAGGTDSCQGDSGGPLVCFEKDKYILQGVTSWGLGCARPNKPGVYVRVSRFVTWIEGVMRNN
T1 sequence (P00747 97-580 partner limits assumed): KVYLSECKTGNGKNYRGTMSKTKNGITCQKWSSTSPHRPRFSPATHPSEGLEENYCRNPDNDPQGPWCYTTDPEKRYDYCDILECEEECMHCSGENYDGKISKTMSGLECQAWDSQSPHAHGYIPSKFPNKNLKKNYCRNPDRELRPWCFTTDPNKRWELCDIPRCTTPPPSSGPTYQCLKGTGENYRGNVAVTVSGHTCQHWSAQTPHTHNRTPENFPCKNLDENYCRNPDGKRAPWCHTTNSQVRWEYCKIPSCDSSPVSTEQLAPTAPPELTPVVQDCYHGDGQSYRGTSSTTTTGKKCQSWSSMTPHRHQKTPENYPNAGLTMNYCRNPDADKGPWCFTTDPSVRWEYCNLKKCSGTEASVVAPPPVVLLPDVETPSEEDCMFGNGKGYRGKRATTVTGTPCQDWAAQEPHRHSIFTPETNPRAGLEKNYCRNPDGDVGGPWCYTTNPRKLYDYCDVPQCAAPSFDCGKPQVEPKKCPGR
T6 sequence (P00752 8-246): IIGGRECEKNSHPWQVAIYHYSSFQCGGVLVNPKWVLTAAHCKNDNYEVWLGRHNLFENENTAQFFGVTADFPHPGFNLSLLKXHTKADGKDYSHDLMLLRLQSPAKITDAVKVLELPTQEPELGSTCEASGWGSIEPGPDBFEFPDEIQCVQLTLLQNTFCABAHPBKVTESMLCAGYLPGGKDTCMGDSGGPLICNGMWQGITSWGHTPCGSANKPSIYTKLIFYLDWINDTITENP

Row | SMILES | relative reactivity in the case of plasmin (Plasmin (PL)) [%] | relative reactivity of substrate with plasmin (Plasmin (PL)) | relative reactivity in the case of factor Xa (Factor Xa (FXa)) [%] | relative reactivity of substrate with factor Xa (Factor Xa (FXa)) | relative reactivity of substrate with trypsin (Trypsin (Try)) | relative reactivity in the case of thrombin (Thrombin (TH)) [%] | relative reactivity of substrate with thrombin (Thrombin (TH)) | relative reactivity in the case of kallikrein (Kallikrein (KL)) [%] | relative reactivity of substrate with kallikrein (Kallikrein (KL)) | measured optical density (absorbance), plasmin (Plasmin (PL); 405 nm (pNA)) | measured optical density (absorbance), factor Xa (Factor Xa (FXa); 405 nm (pNA)) | measured optical density (absorbance), urokinase (Urokinase (UK); 405 nm (pNA)) | measured optical density (absorbance), trypsin (Trypsin (Try); 405 nm (pNA)) | measured optical density (absorbance), thrombin (Thrombin (TH); 405 nm (pNA)) | measured optical density (absorbance), kallikrein (Kallikrein (KL); 405 nm (pNA)) | other results
1 | CC(C)C[C@H](NC(=O)[C@H]1CCCN1)C(=O)N[C@@H](CCCCN)C(=O)Nc1ccc(O)c(C(=O)O)c1 [PS-1188, H-D -Pro-Leu-Lys-CHA] | 3 | 3 | 37 | 37 | 86 | 0 | 0 | 2 | 2 |  |  |  |  |  |  | measured optical density (absorbance), plasmin (Plasmin (PL); 700 nm (coupled CHA)): 0.008; measured optical density (absorbance), factor Xa (Factor Xa (FXa); 700 nm (coupled CHA)): 0.006; measured optical density (absorbance), urokinase (Urokinase (UK); 700 nm (coupled CHA)): 0.001; measured optical density (absorbance), trypsin (Trypsin (Try); 700 nm (coupled CHA)): 0.314; measured optical density (absorbance), thrombin (Thrombin (TH); 700 nm (coupled CHA)): 0.0; measured optical density (absorbance), kallikrein (Kallikrein (KL); 700 nm (coupled CHA)): 0.002
2 | CC(C)[C@H](NC(=O)OCc1ccccc1)C(=O)NCC(=O)N[C@@H](CCCNC(=N)N)C(=O)Nc1ccc([N+](=O)[O-])cc1 [CHR-TRY, Z-Val-Gly-Arg-pNA] (Cbz-Val-Gly-Arg-pNA) | 43 | 43 | 2114 | 2114 | 1626 | 2200 | 2200 | 74 | 74 | 0.057 | 0.148 | 0.112 | 2.601 | 0.066 | 0.029 | 
3 | CC(C)C[C@H](NC(=O)[C@H]1CCCN1)C(=O)N[C@@H](CCCCN)C(=O)Nc1ccc([N+](=O)[O-])cc1 [PS-1188N, H-D -Pro-Leu-Lys-pNA] (H-[dP]-Leu-Lys-pNA) |  | 100 |  | 100 | 100 |  | 100 |  | 100 | 0.134 | 0.007 | 0.0 | 0.160 | 0.003 | 0.032 and 0.039 | 
